Our source for the IC50 values is patent publication US8999990B2, “Inhibitors of the renal outer medullary potassium channel” (Merck Sharp & Dohme Corp., priority 2011, dated 2015).

This assay has as its target T1, hROMK1 (Kir1.1) (Homo sapiens, UniProt P48048).
T1 construct: expressed in transfected cells
T1 sequence (P48048 1-391): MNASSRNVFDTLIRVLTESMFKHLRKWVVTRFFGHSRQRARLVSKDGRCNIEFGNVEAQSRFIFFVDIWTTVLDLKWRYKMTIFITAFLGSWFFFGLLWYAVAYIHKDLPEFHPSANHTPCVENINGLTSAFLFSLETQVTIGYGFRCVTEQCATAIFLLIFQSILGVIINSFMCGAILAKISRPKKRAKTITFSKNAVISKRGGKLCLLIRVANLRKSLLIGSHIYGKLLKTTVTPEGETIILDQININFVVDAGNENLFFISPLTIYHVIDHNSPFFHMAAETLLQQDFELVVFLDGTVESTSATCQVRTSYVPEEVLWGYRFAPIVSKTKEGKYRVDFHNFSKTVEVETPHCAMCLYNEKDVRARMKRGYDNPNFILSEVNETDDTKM
The assay can be described thus: 86Rb+ Efflux Assay. The format is cell-based. As to conditions: CHO-DHFR- cells stably expressing hROMK1; 35 min incubation. On the procedure: Several assays may be used to measure functional inhibition of the ROMK channel by compounds of the instant invention. One assay that was used to test the activity of compounds in the Examples is the functional ^86Rb^+ efflux assay described below, that measures the ability of ROMK to permeate ^86Rb^+, in the absence or presence of test compound. Under control conditions, cells loaded with ^86Rb^+ and incubated in Rb^+-free medium display a time-dependent efflux of the isotope, the rate of which depends on number of functional channels. When cells are incubated in the presence of a channel inhibitor, efflux of ^86Rb^+ is prevented in a concentration-dependent manner, and IC50 values of inhibition by compounds can be accurately determined. This assay has been established with cell lines expressing either human, rat or dog ROMK channels, and can operate in 96- or 384-well format. Importantly, the human, rat, and dog ^86Rb^+ efflux assays can be carried out in the presence of up to 100% serum allowing, therefore, an accurate estimation of the effect of protein binding on the inhibitory activity of compounds of interest. Another ROMK functional assay used to test the activity of compounds in the Examples (described below) makes use of the ability of thallium to permeate through open ROMK channels and increase the fluorescence of a dye previously loaded into the cells. Under control conditions, cells loaded with dye and exposed to thallium-containing medium display a time-dependent increase in fluorescence, the rate of which depends on number of functional channels. When cells are incubated in the presence of a channel inhibitor, the increase in fluorescence is attenuated in a concentration-dependent manner, and IC50 values of inhibition by compounds can be accurately determined. This assay has been established with cell lines expressing either human, or rat ROMK channels, and operates in 384-well format.
CHO-DHFR-cells stably expressing hROMK1 (Kir1.1) are grown at 37° C. in a 10% CO2 humidified incubator in Iscove's Modified Dulbecco's Medium (Gibco 12440) supplemented with HT Supplement, Penicillin/Streptomycin/Glutamine, G418 (500 μg/ml) and 10% FBS. Cells are seeded in Sterile and Tissue Culture Treated Packard CulturPlate White Opaque Microplates at a concentration of 5.0E5-7.0E5 cells/ml-PerkinElmer 6005680 (96-well); Corning 3707 (384 well) in complete media containing 1.5 μCi/ml Rubidium-86. Cells are incubated in 37° C.-10% CO2 incubator overnight. On the day of the experiment, the media is removed and cells are washed with low K assay buffer. ^86Rb^+ efflux is initiated after addition of assay buffer±test compound followed by 35 min incubation at room temperature. ROMK-sensitive component of efflux is defined in the presence of 10 mM BaCl2. Assay buffer is removed and transferred to a plate and cells are solubilized in the presence of SDS. Radioactivity associated with assay and cell plate is determined.
• 1. Remove cell media and wash cells with low K assay buffer (126.9 mM NaCl, 4.6 mM KCl, 2 mM CaCl2, 1 mM MgCl2, 10 mM Hepes/NaOH; pH 7.4) • 200 μl for 96-well plate; 70 μl for 384-well plate • 2. Add assay buffer (121.5 mM NaCl, 10 mM KCl, 2 mM CaCl2, 1 mM MgCl2, 10 mM Hepes/NaOH; pH 7.4)±test compound to cells • 100 μl for 96-well plate; 50 μl for 384-well plate • 3. Incubate at ambient temperature (22-24° C.) for 35 min • 4. Remove assay buffer add it to a 96- or 384-well plate containing Microscint-20 • 96-well Plate: 100 μl buffer, 170 μl MicroScint 20 (for TopCount) • 384-well plate: 20 μl buffer, 50 μl Optiphiase (for MicroLux) • 5. Completely remove remaining assay buffer from cell plate • 6. Solubilize cells with 1% SDS; than add MicroScint or Optiphase • 96-well Plate: 30 μl SDS, 170 μl MicroScint 20 (for TopCount) • 384-well plate: 20 μl SDS, 50 μl Optiphiase (for MicroLux) • 7. Seal both cell and supernatant plates and count Data Calculation— […]
`N#Cc1ccc2c(c1)CCC(N1CCN(CCc3ccc([N+](=O)[O-])cc3)C(=O)C1)C2` (racemic) [Example 2, 6-(4-(4-nitrophenethyl)-3-oxopiperazin-1-yl)-5,6,7,8-tetrahydronaphthalene-2-carbonitrile]: half-maximal inhibition (IC50) required 40 nM.

As to `CC1C(=O)N(CCc2ccc([N+](=O)[O-])cc2)CCN1CCc1ccc([N+](=O)[O-])cc1` (racemic) [Example 6, 3-Methyl-1,4-bis[2-(4-nitrophenyl)ethyl]piperazin-2-one], the IC50 – broadly, the point on the concentration scale where inhibition reaches its midpoint – stood at 270 nM.

`COc1cc([N+](=O)[O-])ccc1CCN1CCN(C2CCc3cc(C#N)ccc3C2)C(=O)C1` (racemic) [Example 9, 6-{4-[2-(2-Methoxy-4-nitrophenyl)ethyl]-2-oxopiperazin-1-yl}-5,6,7,8-tetrahydronaphthalene-2-carbonitrile] came in with an IC50 of 80 nM.

As to `N#Cc1ccc2c(c1)CCC(N1CCN(CCc3ccc4nonc4c3)CC1=O)C2` (racemic) [Example 13, 6-{4-[2-(2,1,3-Benzoxadiazol-5-yl)ethyl]-2-oxopiperazin-1-yl}-5,6,7,8-tetrahydronaphthalene-2-carbonitrile], the IC50 was 310 nM. Compared with the last molecule, the IC50 is about 3.9-fold higher.

`N#Cc1ccc2c(c1)CCC(N1CCN(CCc3ccc4nonc4c3)C(=O)C1)C2` (racemic) [Example 14, 6-{4-[2-(2,1,3-Benzoxadiazol-5-yl)ethyl]-3-oxopiperazin-1-yl}-5,6,7,8-tetrahydronaphthalene-2-carbonitrile] came in with an IC50 of 820 nM.

The molecule `N#Cc1ccc2c(c1)CCC(N1CCN(CCc3ccc([N+](=O)[O-])c(F)c3)CC1=O)C2` (racemic) [Example 21, 6-{4-[2-(3-Fluoro-4-nitrophenyl)ethyl]-2-oxopiperazin-1-yl}-5,6,7,8-tetrahydronaphthalene-2-carbonitrile] came in with an IC50 of 120 nM. Compared with the last molecule, the IC50 is about 6.8-fold lower.

For the molecule `N#Cc1ccc2c(c1)CCC(N1CCN(CCc3ccc([N+](=O)[O-])cc3)CC1=O)C2` (racemic) [Example 23, 6-{4-[2-(4-Nitrophenyl)ethyl]-2-oxopiperazin-1-yl}-5,6,7,8-tetrahydronaphthalene-2-carbonitrile], the IC50 amounted to 60 nM. Compared with the last molecule, the IC50 is about 2-fold lower.

Turning to `N#Cc1ccc(CCN2CCN(C3CCc4cc(C#N)ccc4C3)C(=O)C2)cc1` (racemic) [Example 25, 6-{4-[2-(4-Cyanophenyl)ethyl]-2-oxopiperazin-1-yl}-5,6,7,8-tetrahydronaphthalene-2-carbonitrile], half-maximal inhibition (IC50) required 240 nM.

The molecule `N#Cc1ccc2c(c1)CCC(N1CCN(CCc3ccc4c(c3)COC4=O)CC1=O)C2` (racemic) [Example 26, 6-{2-Oxo-4-[2-(1-oxo-1,3-dihydro-2-benzofuran-5-yl)ethyl]piperazin-1-yl}-5,6,7,8-tetrahydronaphthalene-2-carbonitrile] yielded an IC50 of 30 nM.

For the molecule `N#Cc1ccc2c(c1)CCC(N1CCN(CCc3ccc4c(c3)COC4=O)C(=O)C1)C2` (racemic) [Example 28, 6-{3-Oxo-4-[2-(1-oxo-1,3-dihydro-2-benzofuran-5-yl)ethyl]piperazin-1-yl}-5,6,7,8-tetrahydronaphthalene-2-carbonitrile], 410 nM corresponded to half-maximal inhibition (IC50).

`Cc1c(CCN2CCN(C3CCc4cc(C#N)ccc4C3)C(=O)C2)ccc2c1COC2=O` (racemic) [Example 30, 6-{4-[2-(4-Methyl-1-oxo-1,3-dihydro-2-benzofuran-5-yl)ethyl]-2-oxopiperazin-1-yl}-5,6,7,8-tetrahydronaphthalene-2-carbonitrile] returned an IC50 of 310 nM.

On to `N#Cc1ccc2c(c1)CCC(N1CCN(CCc3ccc4c(c3Cl)COC4=O)CC1=O)C2` (racemic) [Example 31, 6-{4-[2-(4-Chloro-1-oxo-1,3-dihydro-2-benzofuran-5-yl)ethyl]-2-oxopiperazin-1-yl}-5,6,7,8-tetrahydronaphthalene-2-carbonitrile], for which inhibition was half-maximal at 410 nM (IC50).

The molecule `N#Cc1cccc2c1CCCC2CN1CCN(CCc2ccc3c(c2)COC3=O)CC1=O` (racemic) [Example 33, 5-((2-oxo-4-(2-(1-oxo-1,3-dihydroisobenzofuran-5-yl)ethyl)piperazin-1-yl)methyl)-5,6,7,8-tetrahydronaphthalene-1-carbonitrile] had an IC50 of 150 nM.

Consider `N#Cc1ccc2c(c1)CC(N1CCN(CCc3ccc4c(c3)COC4=O)CC1=O)CC2` (racemic) [Example 37, 7-{2-Oxo-4-[2-(1-oxo-1,3-dihydro-2-benzofuran-5-yl)ethyl]piperazin-1-yl}-5,6,7,8-tetrahydronaphthalene-2-carbonitrile], for which the IC50 was determined as 280 nM. This IC50 lies about 1.9-fold higher than the previous one.

On to `N#Cc1ccc2c(c1)CCCC2CN1CCN(CCc2ccc3c(c2)COC3=O)CC1=O` (racemic) [Example 38, 5-({2-Oxo-4-[2-(1-oxo-1,3-dihydro-2-benzofuran-5-yl)ethyl]piperazin-1-yl}methyl)-5,6,7,8-tetrahydronaphthalene-2-carbonitrile], for which the half-maximal inhibitory concentration (IC50) was 140 nM.

In turn, `N#Cc1cc(CCN2CCN(CC(F)c3ccc4c(c3)COC4=O)CC2=O)ccc1F` (racemic) [Example 39, 2-Fluoro-5-(2-{4-[2-fluoro-2-(1-oxo-1,3-dihydro-2-benzofuran-5-yl)ethyl]-2-oxopiperazin-1-yl}ethyl)benzonitrile] returned an IC50 of 910 nM.

Molecule `N#Cc1ccc2c(c1)CCC2CN1CCN(CCc2ccc3c(c2)COC3=O)CC1=O` (racemic) [Example 40, 1-({2-Oxo-4-[2-(1-oxo-1,3-dihydro-2-benzofuran-5-yl)ethyl]piperazin-1-yl}methyl)-2,3-dihydro-1H-indene-5-carbonitrile] gave an IC50 of 120 nM.

Molecule `N#Cc1ccc2c(c1)CC(CN1CCN(CCc3ccc4c(c3)COC4=O)CC1=O)C2` (racemic) [Example 41, 2-({2-Oxo-4-[2-(1-oxo-1,3-dihydro-2-benzofuran-5-yl)ethyl]piperazin-1-yl}methyl)-2,3-dihydro-1H-indene-5-carbonitrile] yielded an IC50 of 380 nM.

Molecule `N#Cc1ccc2c(c1)CCC(N1CCN(CCc3ccc4c(c3)CCOC4=O)CC1=O)C2` (racemic) [Example 42, 6-{2-Oxo-4-[2-(1-oxo-3,4-dihydro-1H-isochromen-6-yl)ethyl]piperazin-1-yl}-5,6,7,8-tetrahydronaphthalene-2-carbonitrile] yielded an IC50 of 300 nM.

Molecule `N#Cc1ccc2c(c1)CCC(N1CCN(CCc3ccc4c(=O)occc4c3)CC1=O)C2` (racemic) [Example 43, 6-{2-Oxo-4-[2-(1-oxo-1H-isochromen-6-yl)ethyl]piperazin-1-yl}-5,6,7,8-tetrahydronaphthalene-2-carbonitrile] registered an IC50 of 210 nM.

`N#Cc1ccc2c(c1)CC(N1CCN(CCc3ccc4c(c3)COC4=O)CC1=O)C2` (racemic) [Example 44, 2-{2-Oxo-4-[2-(1-oxo-1,3-dihydro-2-benzofuran-5-yl)ethyl]piperazin-1-yl}-2,3-dihydro-1H-indene-5-carbonitrile] returned an IC50 of 130 nM.
